In patent US12638448B2, “Compositions, methods, and kits for detection of lipolytic activity” (priority 2019, dated 2026):
Several values for one entry are separate records, joined by “and”; a condition that tells them apart may be missing. Equal entries are not always repeated.

Assays:
[1] = 4MuO auto-hydrolysis (no enzyme), 4Mu fluorescence; type: physicochemical
[2] = molecular target: T1, porcine pancreatic lipase (PPL) (Sus scrofa, UniProt P00591); assay: 4MuO lipase assay with HCMB, sample containing PPL (Examples 1B-6B, 10); type: biochemical
T1 construct: purchased Sigma; host or cells: porcine pancreas
T1 sequence (P00591 1-450): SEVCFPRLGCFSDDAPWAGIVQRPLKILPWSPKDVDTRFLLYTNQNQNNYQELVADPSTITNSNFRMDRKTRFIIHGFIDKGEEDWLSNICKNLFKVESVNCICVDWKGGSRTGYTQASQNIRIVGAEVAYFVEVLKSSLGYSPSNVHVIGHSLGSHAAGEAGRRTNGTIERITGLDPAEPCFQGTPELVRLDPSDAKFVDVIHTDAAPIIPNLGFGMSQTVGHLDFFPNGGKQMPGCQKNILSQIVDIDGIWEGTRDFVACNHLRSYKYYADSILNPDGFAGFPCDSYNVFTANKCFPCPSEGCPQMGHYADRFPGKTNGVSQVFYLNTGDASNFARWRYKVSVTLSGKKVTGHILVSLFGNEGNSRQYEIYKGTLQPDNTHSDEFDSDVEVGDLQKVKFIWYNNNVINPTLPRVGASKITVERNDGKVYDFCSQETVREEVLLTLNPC

[3] = molecular target: T2, Porcine pancreas lipase (PPL) (Sus scrofa, UniProt P00591); assay: 4MuO lipase assay with porcine pancreas lipase (Examples 1A-7); details: for concentration at which product inhibition of lipase activity was observed: 800 nM PPL
T2 sequence (P00591 1-450): T1 sequence (P00591 1-450)

LipC12 lipase = details: as solvent; cited from earlier work
[4] = cited from earlier work
[5] = system: cell culture harvest fluid (CCHF) containing a mixture of lipases; type: biochemical, CHO cell line; details: negative controls, 30 min pre-incubation, 10 mg/mL mAb1, 0.02% PS80, 0.5% CCHF
[6] = as organic solvent of the assay
[7] = 10.4 mM TRIS pH 8.1, 500 nM PPL, 22 hours

With `CCCCCCCC/C=C\CCCCCCCC(=O)Oc1ccc2c(C)cc(=O)oc2c1` [4MuO, 4-methylumbelliferyl oleate, reference compound] the “factor by which autohydrolysis (AH) decreased” value ([1]; lowering the pH from 8 to 6 (TRIS / BIS-TRIS)) was ~5.
With `[Ca+2].[Cl-].[Cl-]` [CaCl2, calcium chloride] the “PPL activity (in words)” value ([2]; highest concentration tested (52 mM CaCl2 in HCMB)) was “slightly decreased”, the “Enzymatic Hydrolysis (EH − AH)” value ([3]; 0.104 mM CaCl2, 500 nM PPL) was 0.66 µM and the “Total Hydrolysis (AH + EH)” value ([3]; 0.104 mM CaCl2, 500 nM PPL) was 0.81 µM. For the same molecule, the “Enzymatic Hydrolysis (EH − AH)” value ([3]; 1.04 mM CaCl2, 500 nM PPL) was 0.73 µM, the “Total Hydrolysis (AH + EH)” value ([3]; 1.04 mM CaCl2, 500 nM PPL) was 0.90 µM and the “Enzymatic Hydrolysis (EH − AH)” value ([3]; 10.4 mM CaCl2, 500 nM PPL) was 0.69 µM. The “Total Hydrolysis (AH + EH)” value ([3]; 10.4 mM CaCl2, 500 nM PPL) was 0.85 µM, the “Auto-Hydrolysis (AH)” value ([1]; 0.104 mM CaCl2) was 0.15 µM and the “Auto-Hydrolysis (AH)” value ([1]; 1.04 mM CaCl2) was 0.16 µM. The “Auto-Hydrolysis (AH)” value ([1]; 10.4 mM CaCl2) was 0.16 µM.
For `CO` [MeOH, methanol], the “factor of increase of LipC12 lipase activity” value (LipC12 lipase) is given as > 10 and the “Auto-Hydrolysis (AH)” value [1, 6] is given as 0.13 µM.
In the case of `Cc1cc(=O)oc2cc(O)ccc12` [4Mu, 4-methylumbelliferone], the pKa [4] is given as “approximately 7.7”.
In the case of `OCCN(CCO)C(CO)(CO)CO` [BIS-TRIS], the “Auto-Hydrolysis (AH)” value ([1]; pH 6) is reported as 0.16 µM and 0.13 µM and 0.11 µM.
For `CCCCCCCCCCC[C@@H](C[C@@H]1OC(=O)[C@H]1CCCCCC)OC(=O)[C@H](CC(C)C)NC=O` [orlistat, (S)-2-formylamino-4-methyl-pentanoic acid (S)-1-[[(2S,3S)-3-hexyl-4-oxo-2-oxetanyl]methyl]-dodecyl ester, reference compound], the inhibition at 25 µM ([2]; 25 μM, 30 min pre-incubation, 0.0335 mg/mL PPL, read-out: reduction of enzyme activity in pre-treated sample compared to co-addition of substrate and inhibitor) was ~50%, the “PPL activity in protein-containing formulation (in words)” value ([2]; negative controls, 30 min pre-incubation, 10 mg/mL mAb1, 0.02% PS80, 0.025 mg/mL PPL) was “inhibited” and the “lipolytic activity (in words)” value ([3]; pre-treatment (30 minutes) at 25 μM, 500 nM PPL) was “completely abolished”. For the same molecule, the “CCHF lipase activity in protein-containing formulation (in words)” value [5] was “inhibited”.
With `CC(C)O` [IPA, isopropanol] the “Auto-Hydrolysis (AH)” value [1, 6] was 0.09 µM.
In the case of `CCCCCCCCCCCC(=O)O` [Lauric Acid, lauric acid, reference compound], the “concentration at which product inhibition of lipase activity was observed” value [3] is reported as “above 8.5 μM”, the “Auto-Hydrolysis (AH)” value ([1]; 8.5 μM Lauric Acid (0.001% PS20 theoretically fully degraded)) is reported as 0.15 µM and the “Auto-Hydrolysis (AH)” value ([1]; 850 μM Lauric Acid (0.1% PS20 theoretically fully degraded)) is reported as 0.08 µM.
In the case of `[Cl-].[Na+]` [NaCl, sodium chloride], the “PPL activity (in words)” value ([2]; highest concentration tested (1800 mM NaCl in HCMB)) is reported as “slightly decreased”, the “Enzymatic Hydrolysis (EH − AH)” value ([3]; 40 mM NaCl, 500 nM PPL) is reported as 0.57 µM and the “Total Hydrolysis (AH + EH)” value ([3]; 40 mM NaCl, 500 nM PPL) is reported as 0.82 µM. The “Enzymatic Hydrolysis (EH − AH)” value ([3]; 120 mM NaCl, 500 nM PPL) was 0.62 µM, the “Total Hydrolysis (AH + EH)” value ([3]; 120 mM NaCl, 500 nM PPL) was 0.91 µM and the “Enzymatic Hydrolysis (EH − AH)” value ([3]; 360 mM NaCl, 500 nM PPL) was 0.59 µM. The “Total Hydrolysis (AH + EH)” value ([3]; 360 mM NaCl, 500 nM PPL) was 0.86 µM, the “Auto-Hydrolysis (AH)” value ([1]; 40 mM NaCl) was 0.25 µM and the “Auto-Hydrolysis (AH)” value ([1]; 120 mM NaCl) was 0.29 µM. For the same molecule, the “Auto-Hydrolysis (AH)” value ([1]; 360 mM NaCl) was 0.28 µM.
With `C[S+](C)[O-]` [DMSO, dimethyl sulfoxide] the “Auto-Hydrolysis (AH)” value [1, 6] was 0.14 µM.
With `CCCCCCCC/C=C\CCCCCCCC(=O)O` [Oleic Acid, oleic acid, reference compound] the “concentration at which product inhibition of lipase activity was observed” value [3] was 780 µM, the “Auto-Hydrolysis (AH)” value ([1]; 7.8 μM Oleic Acid (0.001% PS80 theoretically fully degraded)) was 0.11 µM and the “Auto-Hydrolysis (AH)” value ([1]; 780 μM Oleic Acid (0.1% PS80 theoretically fully degraded)) was 0.06 µM.
In the case of `NC(CO)(CO)CO` [TRIS], the “Enzymatic Hydrolysis (EH − AH)” value [3, 7] is reported as 1.29 µM, the “Total Hydrolysis (AH + EH)” value [3, 7] is reported as 1.51 µM and the “Auto-Hydrolysis (AH)” value ([1]; 10.4 mM TRIS pH 8.1, 22 hours) is reported as 0.22 µM.
